Test results reported in patent US6890951B2, “Treatment of addiction and addiction-related behavior” (Brookhaven Science Associates LLC, priority 1998, dated 2005).
Entries after “also recorded” stand apart in the source; their conditions may differ.

How the values were obtained:
[1] = tested on: male Sprague-Dawley rats; assay: Food-induced conditioned place preference; assay type: in vivo
Text: In order to test food-induced CPP in rodents, four groups of rats were allowed access to food ad libitum during the entire 12 session of CPP procedure. The 12 session CPP procedure was exactly the same as the procedure used in the cocaine induced CPP studies except the appetitive substance was food rather than cocaine. […] The animals in all four groups were habituated to Froot Loops, a fruit-flavored breakfast cereal that is very appealing to laboratory rats, in the appropriate chamber in the test room during four habituating sessions. […] The amount of time spent in the paired and unpaired chambers was recorded using an automated device.
In this example the procedure outlined in Section 3 of Materials and Methods was followed.

[2] = tested on: male Sprague-Dawley rats; assay: Locomotor activity (Photobeam Activity System); assay type: in vivo; conditions: GVG 150 mg/kg or 300 mg/kg i.p., 2.5 hours before
Procedure: Animals were prehandled for 5 minutes each day for one week prior to the experiment to reduce handling stress. […] The animals were transported to the testing area one hour before each experiment. […] The locomotor cages themselves are 41.3×41.3×30.5 cm clear acrylic cages. The electronic system (Photobeam Activity system, San Diego Instruments, San Diego, Calif.) used to monitor locomotor activity consists of 16 infrared beams projecting across the cages from left to right and 16 beams from front to back. All the infrared beams are approximately 0.39 cm from the floor.
In this example the procedures outlined in Section 4 and 5 of Materials and Methods were followed.

[3] = tested on: rats; assay: Nicotine-induced conditioned place preference; assay type: in vivo
Text: A total of 8 rats were examined for each treatment pairing. Animals received 4 pairings over an 8 day period, one pairing per day. […] The protocol on days 1 and 2 was repeated 3 additional times.
The CPP apparatus was made entirely of plexiglass, except for the floor in one of the pairing chambers, which was made of a stainless steel plate with holes (0.5 mm in diameter) spaced 0.5 mm from edge to edge. The two pairing chambers differed in visual and tactile cues. One chamber was entirely light blue with the stainless steel floor and the second chamber was light blue with horizontal black stripes (2.5 cm wide) spaced 3.8 cm apart with a smooth plexiglass floor.
The conditioning procedure consisted of 20 sessions carried out consecutively over 20 days. The first three sessions were habituation sessions, during which the animals were handled for 5 minutes per day and exposed to the sights and sounds of the test room. […] The amount of time spent in each chamber was recorded using an automated infrared beam electronically coupled to a timer.
The animals were habituated as described above. […] Subsequently, the animals were then placed into the appropriate chamber for 30 minutes. This was repeated for 8 pairings over a 16 day period. On the test day, animals were placed in the CPP apparatus and allowed free access to the all of the CPP chambers and the amount of time spent in chamber was recorded.

[4] = tested on: freely moving rats; assay: Cocaine-induced stereotypy after a sensitizing regimen of cocaine; assay type: in vivo
Procedure: The phenomenon of sensitization is observed with virtually all drugs of addiction. Sensitization is believed to play a role in the etiology of addiction.
Animals received 15 mg/kg i.p. of cocaine and stereotypy was determined in standard locomotor cages. For 6 consecutive days, animals received 15 mg/kg i.p. of cocaine once a day in their home cages. Eight days later, animals were rechallenged with 15 mg/kg i.p. of cocaine and stereotypy was determined. A five point rating scale was used to assess stereotypy and the rater was blind to the treatment received by each animal.

[5] = tested on: extracellular DA in the NACC; assay: Microdialysis: ethanol-induced increases in NACC DA; assay type: in vivo, rats; conditions: Rattus norvegicus
Text: All animals were used under an IACUC-approved protocol and with strict adherence to the NIH guidelines. Adult male Sprague-Dawley rats (200-300 g, Taconic Farms), housed in the animals care facility under 12:12 light/dark conditions, were placed into 6 groups (n=5-9), anesthetized and siliconized guide cannulae were stereotactically implanted into the right NACC (2.0 mm anterior and 1.0 mm lateral to bregms, and 7.0 mm ventral to the cortical surface) at least 4 days prior to study. […] Animals were placed in bowls, and probes were inserted and flushed with ACSF overnight. On the day of the study, a minimum of three samples were injected to determine baseline stability. Samples were collected for 20 min. and injected on-line (CMA/160, BAS). The average Dopamine concentration of these three stable samples was defined as control (100%), and all subsequent treatment values were transformed to a percentage of that control. […] The high performance liquid chromatography (HPLC) system consists of a BAS reverse-phase column (3.0 μC-18), a BAS LC-4C electrochemical transducer with a dual/glassy carbon electrode set at 650 mV, a computer that analyzes data on-line using a commercial software package (Chromograph Bioanalytical Systems), and a dual pen chart recorder. The mobile phase (flow rate 1.0 ml/min) consisted of 7.0% methanol, 50 mM sodium phosphate monobasic, 1.0 mM sodium octyl sulfate, and 0.1 mm EDNA, pH 4.0. […] Upon completion of the study, animals were decapitated and frozen sections were obtained for probe placement verification.
Ethanol at a dose of 1.0 g/kg i.p. was administered to the animals.

[6] = tested on: NAc DA; assay: Microdialysis: cocaine/heroin (speedball) induced increases in NAc DA; assay type: in vivo, rats
Procedure: In vivo microdialysis studies were performed using adult male Sprague-Dawley rats (Taconic Farms) as detailed previously (Morgan and Dewey, 1998). Cocaine, a dopamine reuptake inhibitor, (n=6-8) was administered (i.p.) at a dose of 20 mg/kg while heroin, an indirect dopamine releaser, (n=6-8) was administered (i.p.) at a dose of 0.5 mg/kg. In studies designed to investigate the synergistic effects of a cocaine/heroin combination (n=6-8), both drugs were administered at the identical dose used in the single drug studies. Alone cocaine produced a marked elevation in extracellular DA of approximately 380% above baseline values, 60 minutes following administration. DA returned to baseline within 120 minutes. In contrast, heroin increased NAc DA by only 70%, 60 minutes following administration, returning to baseline within 140 minutes. However, when combined, the two drugs produced an increase in NAc DA of approximately 1000%, 180 minutes following administration that had not returned to baseline values by 200 minutes after reaching peak values (FIG. 9).

[7] = tested on: male F344 rats; conditions: cited from earlier work
[8] = in vivo; cited from earlier work
[9] = tested on: Sprague-Dawley rats; assay: Gross locomotor activity during microdialysis (infrared motion sensor); conditions: GVG, during the 2.5 hour pretreatment interval
Text: In parallel to the quantitative estimates of dopamine concentration, the locomotor response of these animals to stimulant administration was simultaneously quantified using an infrared motion sensor. This infrared optical proximity detector monitored movement of the gimbaled arm, an integral component of the freely moving system. The digital output of the detector was interfaced with an IBM personal computer and programmed to count both positive and negative arm deflections. […] Locomotor activity was then expressed as the number of deflections per sample interval.

[10] = acquisition, GVG 37.5 mg/kg i.p. 2.5 hours before nicotine 0.4 mg/kg s.c., 8 pairings
[11] = acquisition, GVG 75 mg/kg i.p. 2.5 hours before nicotine 0.4 mg/kg s.c., 8 pairings
[12] = acquisition, GVG 75 mg/kg i.p. 2.5 hours prior to nicotine 0.4 mg/kg s.c. (Table XII)
[13] = expression, Saline/Nicotine pairings, GVG 37.5 mg/kg on test day
[14] = expression, Saline/Nicotine pairings, GVG 75 mg/kg on test day
[15] = expression, Saline/Nicotine pairings, GVG 150 mg/kg on test day

SMILES: C=CC(N)CCC(=O)O (racemic) [GVG, 4-amino-5-hexanoic acid]
- Time spent in chambers, Paired ([1]; GVG 150 mg/kg ip / Food): 9.4 ± 0.4 min
- Time spent in chambers, Unpaired ([1]; GVG 150 mg/kg ip / Food): 5.6 ± 0.5 min
- Time spent in chambers, Paired ([1]; GVG 300 mg/kg ip / Food): 9.0 ± 0.5 min
- Time spent in chambers, Unpaired ([1]; GVG 300 mg/kg ip / Food): 6.0 ± 0.5 min
- CPP response to food ([1]; GVG 150 and 300 mg/kg): did not alter the CPP response to food
- locomotor activity compared to saline pretreated controls [2]: did not alter locomotor activity
- acquisition of nicotine-induced CPP ([3]; GVG 37.5 mg/kg): did not significantly block and not
- acquisition phase of nicotine-induced CPP ([3]; GVG 75 mg/kg): significantly blocked; also recorded: abolish
- Time spent in chambers, Paired [3, 10]: 8.8 ± 0.5 min
- Time spent in chambers, Unpaired [3, 10]: 6.2 ± 0.5 min
- Time spent in chambers, Paired [3, 11]: 6.9 ± 0.9 min
- Time spent in chambers, Unpaired [3, 11]: 8.1 ± 0.9 min
- Time spent in chambers, Paired [3, 12]: 6.4 ± 0.3^4 min
- Time spent in chambers, Unpaired [3, 12]: 8.6 ± 0.3^5 min
- Time spent in chambers, Paired [3, 13]: 6.8 ± 1.0 min
- Time spent in chambers, Unpaired [3, 13]: 8.2 ± 1.0 min
- Time spent in chambers, Paired [3, 14]: 6.4 ± 0.3 min
- Time spent in chambers, Unpaired [3, 14]: 8.6 ± 0.3 min
- Time spent in chambers, Paired [3, 15]: 5.0 ± 0.9 min
- Time spent in chambers, Unpaired [3, 15]: 10.0 ± 0.9 min
- Stereotypies on Day 15 ([4]; 150 mg/kg i.p. of GVG 2 hrs. before, cocaine 15 mg/kg i.p. rechallenge after sensitizing regimen): 2.3 ± 0.6
- expression of cocaine-induced sensitization ([4]; GVG 150 mg/kg i.p. 2.5 hours prior to the cocaine challenge): abolished the expression of cocaine-induced sensitization
- Stereotypy score on Day 1 ([4]; cocaine 15 mg/kg i.p., baseline of the group later given GVG (no GVG on Day 1)): 2.9 ± 0.4
- inhibition at 300 mg/kg [5]: ~50%
- inhibition at 100 mg/kg ([5]; read-out: inhibition of alcohol's ability to increase nucleus accumbens dopamine): ~40%
- temporal aspects of the response to cocaine/heroin ([6]; GVG 300 mg/kg i.p.): did not effect the temporal aspects of the response
- increase in NAc DA after cocaine/heroin challenge ([6]; GVG 300 mg/kg i.p. 2.5 hours prior to challenge, 180 minutes following challenge): approximately 500%
- synergistic effects of the combined drug challenge (absolute magnitude) ([6]; GVG 300 mg/kg i.p. 2.5 hours prior to cocaine/heroin): completely abolished the synergistic effects
- decrease in brain stimulation reward thresholds produced by 2.5 and 5 mg/kg i.p. cocaine ([7]; GVG 400 mg/kg): significantly antagonized
- brain stimulation reward thresholds ([7]; GVG alone): dose-dependent increase
- excretion [8]: excreted primarily unchanged in the urine; also recorded: excreted primarily in the unchanged form by the kidneys
- interaction with the hepatic microsomal enzymes [8]: does not interact with the hepatic microsomal enzymes
- gross locomotor activity [9]: did not alter gross locomotor activity
